Measured values: publication PMC10489980, “Design of Potent and Salt-Insensitive Antimicrobial Branched Peptides” (Polymers, 2023)
Residues, ends and D or L forms follow the SMILES beside them.

System: ten test organisms (four Gram-negative bacteria, three Gram-positive bacteria, three fungi)
Assay type: cell-based
Description: Ten organisms obtained from the American Type Culture Collection (ATCC; Rockville, MD) were used for antimicrobial assays. Four Gram-negative bacteria included Escherichia coli ATCC 25922, Pseudomonas aeruginosa ATCC 27853, Klebsiella oxytoca ATCC 49131, and Proteus vulgaris ATCC 49132. The three Gram-positive bacteria were Staphylococcus aureus 29213, Micrococcus luteus ATCC 49,732, and Enterococcus faecalis ATCC 29212. The three fungi were Candida albicans ATCC 37092, Candida kefyr ATCC 37095, and Candida tropicalis ATCC 37097. The clinical isolates were obtained from Singapore General Hospital (SGH). […]
Antimicrobial Assays. […] After additional incubation at 37 °C for 16–24 h, the diameter of the clear zone surrounding the wells (colony-free) was measured under a microscope. Antimicrobial activities were expressed in units (0.1 mm = 1 unit), and the MICs (in µM) were determined from the x-intercepts of the dose-response curves. […]
The minimum inhibitory concentrations (MICs) of four series of branched peptides and two standards, tachyplesin-1 and the dendrimer D4R, against four Gram-negative bacteria, three Gram-positive bacteria, and three fungi were determined using a two-stage radial diffusion assay in both low- (without NaCl) and high-salt (with 100 mM NaCl) conditions. […]

Compound: CC(C)C[C@H](NC(=O)[C@H](CCCNC(=N)N)NC(=O)[C@H](CCCNC(=N)N)NC(=O)[C@@H](N)Cc1ccc(O)cc1)C(=O)NCCCC[C@H](NC(=O)[C@H](CC(C)C)NC(=O)[C@H](CCCNC(=N)N)NC(=O)[C@H](CCCNC(=N)N)NC(=O)[C@@H](N)Cc1ccc(O)cc1)C(=O)NCCCC[C@H](NC(=O)[C@H](CCCCNC(=O)[C@H](CC(C)C)NC(=O)[C@H](CCCNC(=N)N)NC(=O)[C@H](CCCNC(=N)N)NC(=O)[C@@H](N)Cc1ccc(O)cc1)NC(=O)[C@H](CC(C)C)NC(=O)[C@H](CCCNC(=N)N)NC(=O)[C@H](CCCNC(=N)N)NC(=O)[C@@H](N)Cc1ccc(O)cc1)C(N)=O [D4Y] (HELM PEPTIDE1{Y.R.R.L.K.K.[am]}|PEPTIDE2{Y.R.R.L}|PEPTIDE3{Y.R.R.L.K}|PEPTIDE4{Y.R.R.L}$PEPTIDE1,PEPTIDE2,5:R3-4:R2|PEPTIDE3,PEPTIDE4,5:R3-4:R2|PEPTIDE1,PEPTIDE3,6:R3-5:R2$$$V2.0; N-terminus and C-terminus assumed)
- MIC in four other organisms, high-salt (3 h): < 10 µM
- antimicrobial activity under high-salt conditions against six of ten tested organisms (radial diffusion assay, 1% agarose, 10 mM phosphate buffer with 100 mM NaCl, result in words): inactive
